Experiment: Antagonist activity at VDR in human HL60 cells assessed as effect on 1,25-(OH)2-D3-induced cell differentiation by NBT assay

Structure (SMILES)	IC50
C=C1/C(=C\C=C2/CCC[C@]3(C)[C@@H]([C@H](C)C[C@H]4C[C@](C)(O)C(=O)N4Cc4cc(OCC)cc(OCC)c4)CC[C@@H]23)C[C@@H](O)C[C@@H]1O [(3S,5S)-1-(3,5-diethoxybenzyl)-5-((R)-2-((1R,3aS,7aR)-4-(2-((3S,5R)-3,5-dihydroxy-2-methylenecyclohexylidene)ethylidene)-7a-methyl-octahydro-1H-inden-1-yl)propyl)-3-hydroxy-3-methylpyrrolidin-2-one]	90 nM
C=C1/C(=C\C=C2/CCC[C@]3(C)[C@@H]([C@H](C)C[C@H]4C[C@](C)(O)C(=O)N4CCCc4ccccc4)CC[C@@H]23)C[C@@H](O)C[C@@H]1O [(3S,5S)-5-((R)-2-((1R,3aS,7aR)-4-(2-((3S,5R)-3,5-dihydroxy-2-methylenecyclohexylidene)ethylidene)-7a-methyl-octahydro-1H-inden-1-yl)propyl)-3-hydroxy-3-methyl-1-(3-phenylpropyl)pyrrolidin-2-one]	2200 nM
C=C1/C(=C\C=C2/CCC[C@]3(C)[C@@H]([C@H](C)C[C@H]4C[C@](C)(O)C(=O)N4Cc4ccccc4)CC[C@@H]23)C[C@@H](O)C[C@@H]1O [(3S,5S)-1-benzyl-5-((R)-2-((1R,3aS,7aR)-4-(2-((3S,5R)-3,5-dihydroxy-2-methylenecyclohexylidene)ethylidene)-7a-methyl-octahydro-1H-inden-1-yl)propyl)-3-hydroxy-3-methylpyrrolidin-2-one]	700 nM
C=C1/C(=C\C=C2/CCC[C@]3(C)[C@@H]([C@H](C)C[C@H]4C[C@](C)(O)C(=O)N4CCCCc4ccccc4)CC[C@@H]23)C[C@@H](O)C[C@@H]1O [(3S,5S)-5-((R)-2-((1R,3aS,7aR)-4-(2-((3S,5R)-3,5-dihydroxy-2-methylenecyclohexylidene)ethylidene)-7a-methyl-octahydro-1H-inden-1-yl)propyl)-3-hydroxy-3-methyl-1-(4-phenylbutyl)pyrrolidin-2-one]	390 nM
C=C1/C(=C\C=C2/CCC[C@]3(C)[C@@H]([C@H](C)C[C@H]4C[C@](C)(O)C(=O)N4CCc4cc(OC)cc(OC)c4)CC[C@@H]23)C[C@@H](O)C[C@@H]1O [(3S,5S)-1-(3,5-dimethoxyphenethyl)-5-((R)-2-((1R,3aS,7aR)-4-(2-((3S,5R)-3,5-dihydroxy-2-methylenecyclohexylidene)ethylidene)-7a-methyl-octahydro-1H-inden-1-yl)propyl)-3-hydroxy-3-methylpyrrolidin-2-one]	860 nM
C=C1/C(=C\C=C2/CCC[C@]3(C)[C@@H]([C@H](C)C[C@H]4C[C@](C)(O)C(=O)N4Cc4cc(OCCC)cc(OCCC)c4)CC[C@@H]23)C[C@@H](O)C[C@@H]1O [(3S,5S)-1-(3,5-dipropoxybenzyl)-5-((R)-2-((1R,3aS,7aR)-4-(2-((3S,5R)-3,5-dihydroxy-2-methylenecyclohexylidene)ethylidene)-7a-methyl-octahydro-1H-inden-1-yl)propyl)-3-hydroxy-3-methylpyrrolidin-2-one]	180 nM
C=C1/C(=C\C=C2/CCC[C@]3(C)[C@@H]([C@H](C)C[C@H]4C[C@](C)(O)C(=O)N4Cc4cc(OCCCC)cc(OCCCC)c4)CC[C@@H]23)C[C@@H](O)C[C@@H]1O [(3S,5S)-1-(3,5-dibutoxybenzyl)-5-((R)-2-((1R,3aS,7aR)-4-(2-((3S,5R)-3,5-dihydroxy-2-methylenecyclohexylidene)ethylidene)-7a-methyl-octahydro-1H-inden-1-yl)propyl)-3-hydroxy-3-methylpyrrolidin-2-one]	540 nM
C=C1/C(=C\C=C2/CCC[C@]3(C)[C@@H]([C@H](C)C[C@H]4C[C@@](C)(O)C(=O)N4Cc4cc(OC)cc(OC)c4)CC[C@@H]23)C[C@@H](O)C[C@@H]1O [(3R,5S)-1-(3,5-dimethoxybenzyl)-5-((R)-2-((1R,3aS,7aR)-4-(2-((3S,5R)-3,5-dihydroxy-2-methylenecyclohexylidene)ethylidene)-7a-methyl-octahydro-1H-inden-1-yl)propyl)-3-hydroxy-3-methylpyrrolidin-2-one]	> 3000 nM
C=C1/C(=C\C=C2/CCC[C@]3(C)[C@@H]([C@H](C)C[C@H]4C[C@](C)(O)C(=O)N4Cc4cc(OC)cc(OC)c4)CC[C@@H]23)C[C@@H](O)C[C@@H]1O [(3S,5S)-1-(3,5-dimethoxybenzyl)-5-((R)-2-((1R,3aS,7aR)-4-(2-((3S,5R)-3,5-dihydroxy-2-methylenecyclohexylidene)ethylidene)-7a-methyl-octahydro-1H-inden-1-yl)propyl)-3-hydroxy-3-methylpyrrolidin-2-one]	300 nM
C=C1/C(=C\C=C2/CCC[C@]3(C)[C@@H]([C@H](C)C[C@@H]4C[C@](C)(O)C(=O)N4Cc4cc(OC)cc(OC)c4)CC[C@@H]23)C[C@@H](O)C[C@@H]1O [(3S,5R)-1-(3,5-dimethoxybenzyl)-5-((R)-2-((1R,3aS,7aR)-4-(2-((3S,5R)-3,5-dihydroxy-2-methylenecyclohexylidene)ethylidene)-7a-methyl-octahydro-1H-inden-1-yl)propyl)-3-hydroxy-3-methylpyrrolidin-2-one]	> 3000 nM
C=C1/C(=C\C=C2/CCC[C@]3(C)[C@@H]([C@H](C)C[C@H]4C[C@](C)(O)C(=O)N4CCc4ccccc4)CC[C@@H]23)C[C@@H](O)C[C@@H]1O [(3S,5S)-5-((R)-2-((1R,3aS,7aR)-4-(2-((3S,5R)-3,5-dihydroxy-2-methylenecyclohexylidene)ethylidene)-7a-methyl-octahydro-1H-inden-1-yl)propyl)-3-hydroxy-3-methyl-1-phenethylpyrrolidin-2-one]	194 nM
C=C1/C(=C\C=C2/CCC[C@]3(C)[C@@H]([C@H](C)C[C@@H]4C[C@@](C)(O)C(=O)N4Cc4cc(OC)cc(OC)c4)CC[C@@H]23)C[C@@H](O)C[C@@H]1O [(3R,5R)-1-(3,5-dimethoxybenzyl)-5-((R)-2-((1R,3aS,7aR)-4-(2-((3S,5R)-3,5-dihydroxy-2-methylenecyclohexylidene)ethylidene)-7a-methyl-octahydro-1H-inden-1-yl)propyl)-3-hydroxy-3-methylpyrrolidin-2-one]	> 3000 nM
C=C1/C(=C\C=C2/CCC[C@]3(C)[C@@H]([C@H](C)C[C@H]4C[C@](C)(O)C(=O)N4CCCc4cc(OC)cc(OC)c4)CC[C@@H]23)C[C@@H](O)C[C@@H]1O [(3S,5S)-5-((R)-2-((1R,3aS,7aR)-4-(2-((3S,5R)-3,5-dihydroxy-2-methylenecyclohexylidene)ethylidene)-7a-methyl-octahydro-1H-inden-1-yl)propyl)-1-(3-(3,5-dimethoxyphenyl)propyl)-3-hydroxy-3-methylpyrrolidin-2-one]	780 nM

— BindingDB's records for doi:10.1016/j.bmcl.2008.06.095 (Tokyo University of Agriculture and Technology, 2008)
